The test system of test [1] is anthrax spores. Set-up: species or system DBA/2 mice. As to conditions: mouse, in vivo.
In test [2] the test system is livers of anthrax-challenged mice. Conditions: mouse, in vivo; cited from earlier work.
Test [3] relates to cultured macrophages. As to conditions: cited from earlier work.

Where a SMILES comes first, the peptide text is derived from it. The star is where a group is joined. Cbz = O=C(OCc1ccccc1)*; CH2F = FC*

For the compound `CNC(=O)[C@H]1O[C@@H](n2cnc3c(NCc4cccc(I)c4)nc(Cl)nc32)[C@H](O)[C@@H]1O` [Cl-IB-MECA, 2-chloro-N^6-(3-iodobenzyl)-adenosine-5′-N-methyluronamide], in test [1], the “protection of exposed animals” value is recorded as 40% and the “protection of mice against post-exposure anthrax” value was “protect mice against post-exposure anthrax”.
With `CNC(=O)[C@H]1O[C@@H](n2cnc3c(NCc4cccc(I)c4)ncnc32)[C@H](O)[C@@H]1O` [IB-MECA, N^6-(3-iodobenzyl)-adenosine-5′-N-methyluronamide], the “protection of mice against post-exposure anthrax” value in test [1] was “protect mice against post-exposure anthrax”.
Compound `O=C(O)c1cn(C2CC2)c2cc(N3CCNCC3)c(F)cc2c1=O` [ciprofloxacin] displayed an animals protected in test [1] (ip, 50 mg/kg) of 30%.
Consider `COC(=O)C[C@H](NC(=O)[C@H](C)NC(=O)[C@@H](NC(=O)OCc1ccccc1)C(C)C)C(=O)CF` [z-VAD, z-Val-Ala-Asp(OMe)-fluoromethylketone] (Cbz-Val-Ala-Asp(OMe)-CH2F), for which the anti-apoptotic effect entry in test [2] and in test [3] was “protective anti-apoptopic effect” each time.

Values taken from patent publication US20110046039A1, “POST-EXPOSURE PROPHYLAXIS AND TREATMENT OF INFECTIONS” (priority 2007, published 2011).
